Test results reported in patent US20230181553A1, “COMPOSITION FOR HAIR IMPROVEMENT” (Dr. Cherry Inc., priority 2020, published 2023).

Columns and labels:
CD163 = assay: Gene expression in rat skin tissue after subcutaneous administration (qPCR); assay type: in vivo, Wistar Rat; conditions: rat back skin, 2.5, 0.1 or 0.02 µg/portion, tissue after 8 weeks, relative to no PG administration
Experimental: (§1) Next, change in gene expression in a tissue was checked. As a subject, 12 weeks old Wistar Rat (male) was used. Regarding a 2.5 µg/portion administration group, three regions were set on the back from the head to the tail, and each of these regions was divided into two regions on both left and right sides of the spine to set six regions on the back in total. In such an administration group, PG was administered to two portions around the center of each of the six regions. Specifically, in the 2.5 µg/portion administration group (n = 3), 2.5 µg (20 µL) of PG was administered per portion. Besides, regarding a 0.1 µg/portion administration group and a 0.02 µg/portion administration group, two regions were set from the head to the tail, and each of these regions was divided into two regions on both left and right sides of the spine, and thus, four regions in total were set on the back. In such an administration group, PG was administered to two portions around the center of each of the four regions. Specifically, in the 0.1 µg/portion administration group (n = 3), 0.1 µg (20 µL) of PG was administered per portion, and in the 0.02 µg/portion administration group (n = 2), 0.02 µg (20 µL) of PG was administered per portion. It is noted that a distance between the two portions was 1 cm. After 8 weeks, a tissue was collected with a 3 mm punch after shaving a portion on the center of the injected portion.
(§2) The collected tissue piece was frozen with liquid nitrogen, and stored at -80° C. […] For gene expression analysis by quantitative PCR, design and synthesis of a gene specific primer and a probe were entrusted to Integrated DNA Technologies, Inc. (Skokie, IL, USA), and an expression level of a target gene was analyzed with Prime Time Gene Expression Master Mix reagent (Integrated DNA Technologies, Inc., Skokie, IL, USA) and a Rotor-Gene Q PCR device (QIAGEN GmbH, Hilden, Germany). […]

CD34 = assay: as above; assay type: in vivo, Wistar Rat; conditions: rat back skin, 2.5, 0.1 or 0.02 µg/portion, tissue after 8 weeks, relative to no PG administration
Experimental: as §1, §2

CD68 = assay: as above; assay type: in vivo, Wistar Rat; conditions: rat back skin, 2.5, 0.1 or 0.02 µg/portion, tissue after 8 weeks, relative to no PG administration
Experimental: as §1, §2

white hair = assay: Change in white hair (trichogram) after oral pioglitazone; assay type: in vivo, human; conditions: oral 15 mg once every day for 6 months
Experimental: As pioglitazone, a 15 mg pioglitazone tablet “NP” was used. Each patient took one tablet containing 15 mg of pioglitazone around 10 o'clock in the morning once every day. Subjects were four patients ([…]). In each of the patients, lines were extended from both outer canthi toward the head, two points on these lines crossing a line extended between the both ears through the vertex were tattooed with an India ink, and a portion around the marked center was photographed under the same conditions. The patient had no white hair in a specific portion at the start, a temporal portion on the line extending between the both ears was tattooed with an Indian ink, and a portion around the marked center was photographed under the same conditions. Pioglitazone was taken continuously for 6 months, and the same test was performed every two months. For trichogram, a portion around the marked center was photographed (Canon Powder Shot […], Tokyo, Japan), and hair within a circle having a diameter of 11 mm (area: 95 mm^2) around the tattooed portion set as a center in an imaging range was photographed in two directions, and the number was visually counted to obtain an average of the two photographs.

hair thinning = assay: Scalp improvement effect in nine regions in androgenetic alopecia patients (rating of hair growth effect); assay type: in vivo, human; conditions: four AGA male patients, oral 5 mg once a day, 2 months
Text: In this example, the scalp was divided into nine regions to observe the effect of the treatment therein. In this manner, even when each patient has both a good portion (portion having a large hair volume) and a poor portion (portion having a small hair volume), influence on the good portion and influence on the poor portion can be separately evaluated, and thus, it can be expected that highly accurate evaluation can be realized. Subjects were four androgenetic alopecia (AGA) male patients (of 42 to 63 years old) having aggravated as compared with a state 1 year ago. Two patients out of these patients had continuously taken Finasteride, an anti-androgen agent, respectively from 4 years ago and 7 years ago, and continuously took it after starting the following treatment. In this example, pioglitazone, that is a PPARγ agonist, was orally administered to these patients. […] A photograph of each patient taken from directly above 10 to 12 months before starting the treatment of this example, a photograph taken on the day of starting the treatment, and a photograph taken after 2 months from the start of the treatment were evaluated. […] A hair growth effect was evaluated by the 5 medical specialists in accordance with the following rating. […]

CCc1ccc(CCOc2ccc(CC3SC(=O)NC3=O)cc2)nc1 (centres unmarked) [pioglitazone]
expression of CD163 (CD163): found to simultaneously increase | expression of CD34 (CD34): found to increase | expression of CD68 (CD68): found to simultaneously increase | decrease in number of white hairs, number before administration assumed 100 (white hair; n = 3): 23.2% | decrease of white hair, average (white hair; n = 3): 12.7 hairs/95 mm^2 | change in white hair in shaved portion (white hair; three patients having white hair before the treatment): the white hair was decreased | hair thinning in a site having a high degree of aggravation (hair thinning): trends toward improvement were observed | progress of hair thinning (hair thinning; rating by 5 medical specialists, FIG. 7B): the progress of hair thinning was at least stopped
